{
  "source": "paper PMC12966202",
  "about": "(Molecular Imaging and Biology, 2025)",
  "description": "Subjects with localized known or suspected infection were recruited and provided informed consent according to guidelines of the University of Pennsylvania Institutional Review Board. […] The full study protocols are available at clinicaltrials.gov, NCT03424525 and were performed under the authority of the University of Pennsylvania Radioactive Drug Research Committee.\nPET scans were acquired from head to mid-thigh over 15 min in 10 overlapping bed positions at 90 s per bed position with ~ 50% bed overlap. The first PET scan was started immediately following injection, followed by a second scan at 20 ± 3 min post-injection, and a third scan at 63 ± 4 min post-injection. Suspected infections outside of the dosimetry scan field of view were optionally imaged following the acquisition of the final dosimetry scan. Subjects had the option to void bladders between the second and third PET/CT scans and following the last scan, without urine collection. Images were reconstructed using a list-mode time-of-flight ordered subsets expectation maximization algorithm (TOF-OSEM). […] These images were reconstructed using TOF-OSEM, but were not included in the quantitative dosimetry results (Fig. 2).\nTotal activity in the brain, gallbladder, heart, intestines, kidneys, liver, lungs, pancreas, spleen, thyroids, and urinary bladder was assessed via PET with MIM v6.7 (MIM Software Inc.), using co-registered CT images to delineate regions of interest. To enable estimation of total activity in red bone marrow, tracer uptake and volume were measured based on activity concentrations in the 2nd to 4th lumbar vertebrae of each subject. Using a red marrow density of 1.03 g/mL and assuming that red marrow weight is 1.6% of total body weight, total red marrow activity was calculated for each subject. Time activity curves for organs were generated and in most cases fit to mono- or bi-exponential functions using OLINDA | EXM v1.1 software RRID:SCR_026835 [23]. For time activity curves that were poorly fit by exponential functions, a Riemann Sum was used to calculate numbers of disintegrations occurring in the organs. Dosimetry estimates were calculated using the Standard Adult Male phantom option in OLINDA.",
  "key": {"[1]": {"conditions": "average injected activity of 346 MBq (9.4 mCi)"}},
  "note": "Several values for one entry are separate records, joined by “and”; a condition that tells them apart may be missing. Identical values can stand only once.",
  "data": [
    {"smiles": "COc1cc(Cc2cnc(N)nc2N)cc(OC)c1O[11CH3]", "note": "[[^11C]TMP, [^11C]trimethoprim]", "values": [
      {"measurement": "Effective dose", "setting": "Mean ± SD, n = 4 males", "value": "4.53E-03 mSv/MBq and 4.53E-03 ± 2.22E-04 mSv/MBq"},
      {"measurement": "Effective dose equivalent", "setting": "Mean ± SD, n = 4 males", "value": "6.08E-03 ± 3.49E-04", "unit": "mSv/MBq"},
      {"measurement": "Mean absorbed dose estimate, Adrenals", "setting": "Mean ± SD, n = 4 males", "value": "3.47E-03 ± 1.13E-04", "unit": "mSv/MBq"},
      {"measurement": "Mean absorbed dose estimate, Bone (red marrow)", "setting": "Mean ± SD, n = 4 males", "value": "3.75E-03 ± 4.17E-04", "unit": "mSv/MBq"},
      {"measurement": "Mean absorbed dose estimate, Brain", "setting": "Mean ± SD, n = 4 males", "value": "1.37E-03 ± 3.00E-04", "unit": "mSv/MBq"},
      {"measurement": "Mean absorbed dose estimate, Breasts", "setting": "Mean ± SD, n = 4 males", "value": "1.95E-03 ± 8.35E-05", "unit": "mSv/MBq"},
      {"measurement": "Mean absorbed dose estimate, Heart wall", "setting": "Mean ± SD, n = 4 males", "value": "4.66E-03 ± 3.36E-04", "unit": "mSv/MBq"},
      {"measurement": "Mean absorbed dose estimate, Kidneys", "setting": "Mean ± SD, n = 4 males", "value": "1.35E-02 mSv/MBq and 1.35E-02 ± 2.44E-03 mSv/MBq"},
      {"measurement": "Mean absorbed dose estimate, Liver", "setting": "Mean ± SD, n = 4 males", "value": "1.43E-02 mSv/MBq and 1.43E-02 ± 1.58E-03 mSv/MBq"},
      {"measurement": "Mean absorbed dose estimate, Lower large intestine wall", "setting": "Mean ± SD, n = 4 males", "value": "2.83E-03 ± 8.88E-05", "unit": "mSv/MBq"},
      {"measurement": "Mean absorbed dose estimate, Lungs", "setting": "Mean ± SD, n = 4 males", "value": "5.62E-03 ± 1.05E-03", "unit": "mSv/MBq"},
      {"measurement": "Mean absorbed dose estimate, Muscle", "setting": "Mean ± SD, n = 4 males", "value": "2.25E-03 ± 6.29E-05", "unit": "mSv/MBq"},
      {"measurement": "Mean absorbed dose estimate, Osteogenic cells", "setting": "Mean ± SD, n = 4 males", "value": "3.98E-03 ± 2.42E-04", "unit": "mSv/MBq"},
      {"measurement": "Mean absorbed dose estimate, Ovaries", "setting": "Mean ± SD, n = 4 males", "value": "3.07E-03 ± 1.25E-04", "unit": "mSv/MBq"},
      {"measurement": "Mean absorbed dose estimate, Pancreas", "setting": "Mean ± SD, n = 4 males", "value": "5.27E-03 ± 2.20E-03", "unit": "mSv/MBq"},
      {"measurement": "Mean absorbed dose estimate, Skin", "setting": "Mean ± SD, n = 4 males", "value": "1.73E-03 ± 6.60E-05", "unit": "mSv/MBq"},
      {"measurement": "Mean absorbed dose estimate, Small intestine", "setting": "Mean ± SD, n = 4 males", "value": "9.29E-03 ± 2.33E-03", "unit": "mSv/MBq"},
      {"measurement": "Mean absorbed dose estimate, Spleen", "setting": "Mean ± SD, n = 4 males", "value": "1.18E-02 mSv/MBq and 1.18E-02 ± 4.64E-03 mSv/MBq"},
      {"measurement": "Mean absorbed dose estimate, Stomach wall", "setting": "Mean ± SD, n = 4 males", "value": "2.83E-03 ± 6.34E-05", "unit": "mSv/MBq"},
      {"measurement": "Mean absorbed dose estimate, Testes", "setting": "Mean ± SD, n = 4 males", "value": "2.03E-03 ± 1.05E-04", "unit": "mSv/MBq"},
      {"measurement": "Mean absorbed dose estimate, Thymus", "setting": "Mean ± SD, n = 4 males", "value": "2.31E-03 ± 9.59E-05", "unit": "mSv/MBq"},
      {"measurement": "Mean absorbed dose estimate, Thyroid", "setting": "Mean ± SD, n = 4 males", "value": "5.96E-03 ± 1.73E-03", "unit": "mSv/MBq"},
      {"measurement": "Mean absorbed dose estimate, Total Body", "setting": "Mean ± SD, n = 4 males", "value": "2.84E-03 ± 6.24E-05", "unit": "mSv/MBq"},
      {"measurement": "Mean absorbed dose estimate, Upper large intestine wall", "setting": "Mean ± SD, n = 4 males", "value": "4.86E-03 ± 7.38E-04", "unit": "mSv/MBq"},
      {"measurement": "Mean absorbed dose estimate, Urinary bladder wall", "setting": "Mean ± SD, n = 4 males", "value": "1.10E-02 mSv/MBq and 1.10E-02 ± 5.55E-03 mSv/MBq"},
      {"measurement": "Mean absorbed dose estimate, Uterus", "setting": "Mean ± SD, n = 4 males", "value": "3.21E-03 ± 2.24E-04", "unit": "mSv/MBq"},
      {"measurement": "Mean absorbed dose estimate, Gallbladder wall", "setting": "Mean ± SD, one subject with cholecystectomy removed", "value": "5.00E-03 ± 4.43E-04", "unit": "mSv/MBq"},
      {"measurement": "background uptake in the brain", "setting": "PET imaging, 4 adult males", "value": "low background uptake in the brain"},
      {"measurement": "estimated absorbed dose in the spleen", "setting": "[1]", "value": 4.1, "unit": "mSv"},
      {"measurement": "estimated effective dose", "setting": "[1]", "value": 1.6, "unit": "mSv"},
      {"measurement": "estimated absorbed dose in the liver", "setting": "average injected activity of 346 MBq (9.4 mCi), highest uptake organ", "value": 4.9, "unit": "mSv"}
    ]}
  ]
}
